Data on one molecule can be found in PMC12412324, “Design, synthesis, and evaluation of novel pinane-based thiazolidione derivatives with anti-glioblastoma activity” (Journal of Enzyme Inhibition and Medicinal Chemistry, 2025).

Experiment [1] concerns the target T1, CDK2 (Homo sapiens, UniProt P24941).
T1 construct: endogenous in cells; host or cells: U251 cells (lysate)
Briefly: Drug affinity responsive target stability (DARTS) assay. It is filed as binding. The following applies: U251 lysate, C5 50 and 100 μM, pronase 30 min, versus DMSO. Here is the method: U251 cells were plated in 10 cm dishes. After overnight, the cells were washed by precooled PBS, and lysed by NP-40 lysis buffer for 30 min. Next, lysates were centrifuged at 13000 rpm for 15 min at 4 °C, and protein concentration was determined using a BCA protein assay kit (Solarbio, PC0020). The supernatants were divided into four 50 μL aliquots and incubated with DMSO or compound C5 (50 and100μM) for 30 min at room temperature. Then, the 5 μL of Pronase (The method of preparing the stock solution is 1 μg of Pronase in 200 μg of lysate, the effect concentration which is diluted by ultrapure water to 200X/400X/600X), and the reaction was stopped by 5× loading buffer. Protein samples were boiled and analysed by using Western blot.

In experiment [2] the test system is U251 cells. Briefly: Intracellular ROS by flow cytometry (DCFH-DA). It is filed as cell-based. To be noted: U251, 5 μM C5, DCFH-DA. On the procedure:
(§1) U251 (1 × 10^5 cells/well) in logarithmic growth phase were transferred into 6-well microplates and cultured for 12 h. Therefore, U251 cells were treated with C5 (0, 2.5, 5, and 10 μM) for 24 h. Annexin V-FITC/PI staining kit (Yeasen, Shanghai, China) was used to detect cell apoptosis. The cell cycle distribution was analysed by staining with a cell cycle analysis kit. Intracellular ROS levels were also detected using a ROS assay kit (Yeasen, Shanghai, China). All assays were performed as per the manufacturer’s instructions, and the stained cells were analysed by flow cytometry (Beckman Coulter, Miami, FL) to quantify apoptosis rates, cell cycle distribution, and ROS levels as appropriate.
Background: Flow cytometry measures light scatter and fluorescence of single cells or particles in a stream.

For a further experiment, the system named is LO2. The experiment can be described thus: CCK-8 cytotoxicity, normal human cell line LO2. It is filed as cell-based. To be noted: L02, mean ± SD of three independent experiments.
The test system of experiment [3] is GBM cell lines (U87, T98G, and U251). The experiment can be described thus: CCK-8 anti-proliferation, three GBM cell lines taken together. Format: cell-based. The following applies: read-out: IC50 values against all three GBM cell lines. Here is the method:
(§2) The U87MG cell line (catalogue iCell-h224) and U251MG cell line (catalogue iCell-h219) were purchased from iCell Bioscience Inc (Shanghai) cell bank. T98G cell line was obtained from Yining Zhang’s group. All cells were cultured in DMEM supplemented with 10% (v/v) FBS and penicillin-streptomycin in a humidified incubator at 37 °C under 5% CO2. The different compounds were dissolved in DMSO at the concentration of 10 mM and diluted in serum-free medium. The GBM cells were seeded into 96-well microplates at the density of 6000 cells/well and incubated for 24 h. Fresh media supplemented with different concentrations of the compounds were added, and the cells were cultured for 72 h. The CCK-8 reagent (TargetMol, C0005) was added to each well and the cells were incubated for 4 h at 37 °C. […] the absorbance was measured at […] using a microplate reader (Genios Tecan). An untreated control group was included and its viability was set as 100%. IC50 value of the two probes was calculated using GraphPad Prism 5.0.

For experiment [4], the system named is U251 cells. The experiment can be described thus: Annexin V-FITC/PI apoptosis flow cytometry. Format: cell-based. To be noted: U251, C5 10 μM, 48 h. Here is the method: as §1, with “Therefore, U251 cells were treated with C5 (0, 2.5, 5, and 10 μM) for 24 h.” left out
Experiment [5] deals with U251 cells. Briefly: Mitochondrial membrane potential (JC-1). Format: cell-based. To be noted: U251, C5 2.5, 5, 10 μM, 24 h. Here is the method: U251 cells were seeded in 6-well microplates at the density of 1.5 × 10^5 cells/well and cultured overnight. Fresh medium containing different doses of C5 (0, 2.5, 5, and 10 μM) was added, and the cells were cultured for 24 h. The cells were stained using the JC-1 kit (Sigma-Aldrich, USA) according to the manufacturer’s instructions and observed by fluorescence microscopy. The changes in the ratio of the red and green fluorescence intensities were calculated to evaluate MMP.

In experiment [6] the test system is U251 cells. The experiment can be described thus: Transwell invasion experiment (Matrigel). Format: cell-based. The following applies: U251, C5 2.5, 5, 10 µM, 24 h, dose-dependent. On the procedure:
Matrigel-coated transwell chambers (24-well; 8-μm pore size, Corning, New York, NY, USA) were used to evaluate the invasion capability of GBM cells. The U251 cells incubated with different doses of C5 (0, 2.5, 5, and 10 μM) for 24 h were seeded on Matrigel-coated transwell chambers at the density of 2 × 10^4/well in a serum-free medium. After culturing for 24 h, the cells that invaded through Matrigel to the lower surface of the membrane were fixed with […] and stained with 0.1% crystal violet. The cells were counted under an inverted microscope in at least 5 random fields per well.

The next experiment relates to U87. Briefly: CCK-8 cell viability assay, U87. It is filed as cell-based. The following applies: Homo sapiens, U-87 MG, 72 h, CCK-8, 72 h, mean ± SD of three independent experiments. Here is the method:
as §2
In general terms: Tetrazolium dyes change colour on reduction, which living cells bring about.

In experiment [7] the target is T1, CDK2. The experiment can be described thus: Cellular thermal shift assay (CETSA). It is filed as binding. To be noted: U251, C5 50 and 100 µM, 40–70 °C, compared to control group. On the procedure:
U251 cells in logarithmic growth were harvested and lysed with protease inhibitors and phosphorylase inhibitors, followed by ultrasonic disruption and ice extraction for 1 h. After that, the lysate was divided into three parts evenly and incubated with DMSO, 50 µM of C5, and 100 µM of C5 for 1 h at room temperature. Subsequently, samples were heated in the PCR machine for 10 min in indicated temperature gradients (40–70 °C), respectively. Finally, samples were centrifuged at 14,000 × g for 30 min at 4 °C to remove aggregates, and the resulting supernatant was analysed with western blotting.

For experiment [8], the system named is apoptosis-related and autophagy-related proteins in U251 cells. The experiment can be described thus: Western blotting of apoptosis-related and autophagy-related proteins. Format: cell-based. The following applies: immunoblot. Here is the method: The protein content in the lysates was measured using a BCA protein assay kit, and 20 μg protein per sample was separated by SDS-PAGE and transferred to PVDF membranes (Merck Millipore, Burlington, MA, USA). After blocking with 5% skim milk in Tris buffered saline-Tween (TBS-T) at room temperature for 2h, the blots were incubated overnight with the following primary antibodies at 4 °C: mouse anti-GAPDH (ab8245, 1:10000), rabbit anti-Bax (ab32503, 1:5000), anti-Bcl-2 (ab32124, 1:1000), anti-caspase 3 (ab32351, 1:5000), anti-cleaved caspase 3 (ab32042, 1:500), anti-cleaved PARP-1 (ab32561, 1:1000), anti-LC3B (ab192890, 1:2000), anti-p62 (ab109012, 1:10000), anti-PARP-1 (ab32138, 1:10000). Following three washes with TBS-T, the membranes were incubated with corresponding horseradish peroxidase-conjugated secondary antibodies (1:10000) at room temperature for 90 min, and washed thrice with TBS-T. The bands were visualised using the Minichem@610 Chemiluminescence imager (SAGCEREATION, Beijing) on the chemiluminescence channel.
In general terms: A western blot detects proteins with antibodies after separation by electrophoresis.

In experiment [9] the test system is U251 multicellular tumour spheroids. The experiment can be described thus: 3D spheroid assay (MCTSs, calcein-AM/PI). The following applies: C5 24 h, dose-dependent. It is filed as cell-based. On the procedure: Malignant glioblastoma tumour cells U251 were seeded in cell-repellent 96-well U-bottom plates (Sbio™), and cultured for 72 h to allow spheroid formation. […] Spheroids were stained with PI and Calcein-AM, and observed under a fluorescence microscope.

For the next experiment, the system named is U251. Briefly: CCK-8 cell viability assay, U251. Format: cell-based. The following applies: Homo sapiens, U-251, 72 h, CCK-8, 72 h, mean ± SD of three independent experiments. On the procedure: as §2
For experiment [10], the system named is U251 cells. Briefly: Cell cycle distribution by flow cytometry. It is filed as cell-based. To be noted: U251, C5 2.5, 5, 10 μM, 48 h. Here is the method:
as §1, with “Therefore, U251 cells were treated with C5 (0, 2.5, 5, and 10 μM) for 24 h.” left out

The test system of another experiment is T98G. Briefly: CCK-8 cell viability assay, T98G. To be noted: Homo sapiens, T98G, 72 h, CCK-8, 72 h, mean ± SD of three independent experiments. Format: cell-based. On the procedure:
as §2

Where [11] appears, read: U251, C5 treatment 24 h, concentration-dependent.

Values joined by “and” are separate entries in the source; they are usually repeats but may differ in a detail not shown here. Equal values may be shown once.

On to `CN1C(=O)C(=Cc2ccc(O)cc2)SC1=NN=CC1=CCC2CC1C2(C)C` (stereo not shown) [C5, 2-(((6,6-Dimethylbicyclo[3.1.1]hept-2-en-2-yl)methylene)hydrazineylidene)-5–(4-hydroxybenzylidene)-3-methylthiazolidin-4-one], for which, on CDK2 [1], the “CDK2 stability to pronase digestion (DARTS)” value was “enhanced stability”. Also, the “intracellular ROS levels” value in the experiment on U251 cells [2] is recorded as “significantly increased”. Also, the IC50 was 43.2 ± 0.21 µM in the experiment on LO2; 3.12 to 4.25 µM and < 5 µM in [3]; 3.98 ± 0.34 µM in the experiment on U87; 3.12 ± 0.45 µM in the experiment with U251; 4.25 ± 0.38 µM in the experiment on T98G. Further, the apoptosis rate in the experiment on U251 cells [4] came out at 48.56%. Also, in the experiment with U251 cells [5], the “mitochondrial membrane potential, JC-1 fluorescence” value is “dose-dependent decrease in red fluorescence”. Moreover, the “number of viable cells that invaded through the Matrigel” value in the experiment with U251 cells [6] is given as “significantly decreased”. Also, the “thermal stability of CDK2 (CETSA)” value at CDK2 [7] is recorded as “substantially increased”. Further, the Bax expression entry in experiment [8] (U251, C5 treatment 24 h) is on record as “upregulation”. In experiment [8] (U251, C5 treatment 24 h), the Bcl-2 expression result is “dose-dependent downregulation”. Moreover, the PARP cleavage entry in experiment [8] (setting [11]) was “enhanced”. Besides, in [8] (setting [11]), the caspase-3 activation result is on record as “enhanced”. In [8] (U251, C5 treatment), the LC3B-II expression entry is recorded as “significantly enhanced”. The P62 expression result in experiment [8] (U251, C5 treatment) was “significantly enhanced”. Besides, the “viability of U251 cells in a 3D model” value in experiment [9] was “decreased”. Moreover, the cell cycle distribution entry in the experiment with U251 cells [10] was “decrease in the G2/M population, with a concomitant increase in the S phase population”.

The IC50 is the concentration at which inhibition is half-maximal.
